Reference: ChEMBL document CHEMBL4602712, “Synthesis and Evaluation of Noncovalent Naphthalene-Based KEAP1-NRF2 Inhibitors” (ACS Med Chem Lett, 2020)

biological target: Kelch-like ECH-associated protein 1 (Homo sapiens, UniProt Q14145); test: Inhibition of FITC-9mer Nrf2 peptide binding to recombinant human KEAP1 Kelch domain (321 to 609 residues) expressed in Escherichia coli BL21 (DE3) by fluorescence polarization assay
Sequence (Q14145 whole entry, the tested form may be a part): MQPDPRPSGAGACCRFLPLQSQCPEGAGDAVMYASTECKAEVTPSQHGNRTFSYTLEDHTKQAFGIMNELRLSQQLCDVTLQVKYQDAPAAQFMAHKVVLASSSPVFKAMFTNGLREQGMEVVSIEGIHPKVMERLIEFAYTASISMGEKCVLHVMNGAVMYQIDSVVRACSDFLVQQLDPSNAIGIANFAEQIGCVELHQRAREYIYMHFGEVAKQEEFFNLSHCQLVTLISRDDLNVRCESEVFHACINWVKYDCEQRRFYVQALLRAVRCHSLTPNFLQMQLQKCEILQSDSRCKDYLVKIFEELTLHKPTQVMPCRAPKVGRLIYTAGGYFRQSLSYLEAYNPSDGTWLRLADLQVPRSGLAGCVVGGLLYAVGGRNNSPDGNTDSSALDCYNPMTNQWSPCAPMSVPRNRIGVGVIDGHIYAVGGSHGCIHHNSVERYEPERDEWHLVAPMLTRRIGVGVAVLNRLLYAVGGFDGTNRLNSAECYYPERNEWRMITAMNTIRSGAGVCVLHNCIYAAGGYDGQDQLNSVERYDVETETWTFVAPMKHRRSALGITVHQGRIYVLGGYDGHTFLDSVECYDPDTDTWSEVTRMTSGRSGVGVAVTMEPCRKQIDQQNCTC

| SMILES | IC50 [µM] |
| --- | --- |
| COc1ccc(S(=O)(=O)Cc2ccc(CS(=O)(=O)c3ccc(OC)cc3)c3ccccc23)cc1 | > 25 |
| COc1ccc(S(=O)(=O)Nc2ccc(CCC(=O)O)c3ccccc23)cc1 | > 25 |
| COc1ccc(S(=O)(=O)Nc2ccc(/C=C/C(=O)O)c3ccccc23)cc1 | > 25 |
